Tests used:
Details in all cases: Compound concentration 1.0 uM
[1] = molecular target: T1, Serine/threonine-protein kinase D2 (Homo sapiens) (UniProt Q9BZL6)
T1 sequence (whole entry): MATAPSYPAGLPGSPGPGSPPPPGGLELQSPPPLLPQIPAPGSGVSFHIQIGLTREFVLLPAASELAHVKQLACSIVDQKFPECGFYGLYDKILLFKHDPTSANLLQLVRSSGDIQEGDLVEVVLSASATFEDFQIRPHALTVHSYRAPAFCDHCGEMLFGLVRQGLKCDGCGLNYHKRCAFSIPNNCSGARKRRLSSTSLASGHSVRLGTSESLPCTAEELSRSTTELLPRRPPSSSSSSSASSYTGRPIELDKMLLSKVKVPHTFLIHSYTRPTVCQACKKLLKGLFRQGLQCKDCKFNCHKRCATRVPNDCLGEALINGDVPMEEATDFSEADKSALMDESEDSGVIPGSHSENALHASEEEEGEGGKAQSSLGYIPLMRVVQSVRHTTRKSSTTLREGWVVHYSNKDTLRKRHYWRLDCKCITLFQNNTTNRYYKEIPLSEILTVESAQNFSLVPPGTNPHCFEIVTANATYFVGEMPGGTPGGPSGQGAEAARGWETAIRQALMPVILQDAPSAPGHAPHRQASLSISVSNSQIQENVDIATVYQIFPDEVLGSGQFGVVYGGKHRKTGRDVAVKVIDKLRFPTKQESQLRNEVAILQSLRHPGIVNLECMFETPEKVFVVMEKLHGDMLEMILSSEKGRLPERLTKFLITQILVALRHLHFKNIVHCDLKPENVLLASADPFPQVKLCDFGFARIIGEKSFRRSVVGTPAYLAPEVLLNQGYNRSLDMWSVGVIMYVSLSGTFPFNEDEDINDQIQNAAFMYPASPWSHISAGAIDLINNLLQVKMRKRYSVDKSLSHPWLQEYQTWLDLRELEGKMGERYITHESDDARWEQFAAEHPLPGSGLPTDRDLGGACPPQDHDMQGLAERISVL

[2] = molecular target: Mitogen-activated protein kinase 10 (Homo sapiens) (UniProt P53779)
[3] = molecular target: Calcium/calmodulin-dependent protein kinase type 1 (Homo sapiens) (UniProt Q14012)
[4] = molecular target: [Pyruvate dehydrogenase (acetyl-transferring)] kinase isozyme 4, mitochondrial (Homo sapiens) (UniProt Q16654)
[5] = molecular target: T2, Serine/threonine-protein kinase DCLK3 (Homo sapiens) (UniProt Q9C098)
T2 sequence (whole entry): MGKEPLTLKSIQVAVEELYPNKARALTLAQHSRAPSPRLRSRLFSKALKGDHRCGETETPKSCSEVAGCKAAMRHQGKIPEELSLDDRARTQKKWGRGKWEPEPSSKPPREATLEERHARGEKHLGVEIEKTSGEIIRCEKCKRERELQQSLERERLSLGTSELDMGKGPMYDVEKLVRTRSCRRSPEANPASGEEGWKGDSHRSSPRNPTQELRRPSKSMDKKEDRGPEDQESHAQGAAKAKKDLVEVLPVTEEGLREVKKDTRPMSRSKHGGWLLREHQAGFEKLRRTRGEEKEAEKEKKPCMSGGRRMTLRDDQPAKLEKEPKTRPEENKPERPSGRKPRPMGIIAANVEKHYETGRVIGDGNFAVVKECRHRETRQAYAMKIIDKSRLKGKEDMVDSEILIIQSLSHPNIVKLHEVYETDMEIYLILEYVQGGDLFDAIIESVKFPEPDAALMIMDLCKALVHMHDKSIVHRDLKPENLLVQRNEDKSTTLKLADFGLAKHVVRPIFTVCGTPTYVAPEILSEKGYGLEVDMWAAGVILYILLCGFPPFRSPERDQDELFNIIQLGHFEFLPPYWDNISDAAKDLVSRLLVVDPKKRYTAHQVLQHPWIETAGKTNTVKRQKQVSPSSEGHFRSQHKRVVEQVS

[6] = molecular target: Cyclin-dependent kinase 2/cyclin A (Homo sapiens) (UniProt P24941+P20248+P78396)
[7] = molecular target: T3, Cyclin-dependent kinase-like 2 (Homo sapiens) (UniProt Q92772)
T3 sequence (whole entry): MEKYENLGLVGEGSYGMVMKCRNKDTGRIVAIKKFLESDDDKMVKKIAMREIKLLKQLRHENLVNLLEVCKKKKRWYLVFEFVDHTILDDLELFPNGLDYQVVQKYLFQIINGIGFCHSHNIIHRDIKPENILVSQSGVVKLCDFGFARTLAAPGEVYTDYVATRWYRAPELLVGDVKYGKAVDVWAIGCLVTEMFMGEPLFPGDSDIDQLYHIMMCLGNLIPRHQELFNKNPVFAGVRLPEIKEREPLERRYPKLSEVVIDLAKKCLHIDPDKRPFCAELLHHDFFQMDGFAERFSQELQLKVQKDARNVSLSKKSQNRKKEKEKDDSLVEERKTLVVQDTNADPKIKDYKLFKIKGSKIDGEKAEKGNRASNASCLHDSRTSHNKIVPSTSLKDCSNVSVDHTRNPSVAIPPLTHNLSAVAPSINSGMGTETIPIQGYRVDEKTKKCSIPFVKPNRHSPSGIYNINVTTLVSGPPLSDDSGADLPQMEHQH

[8] = molecular target: T4, Serine/threonine-protein kinase Chk1 (Homo sapiens) (UniProt O14757)
T4 sequence (whole entry): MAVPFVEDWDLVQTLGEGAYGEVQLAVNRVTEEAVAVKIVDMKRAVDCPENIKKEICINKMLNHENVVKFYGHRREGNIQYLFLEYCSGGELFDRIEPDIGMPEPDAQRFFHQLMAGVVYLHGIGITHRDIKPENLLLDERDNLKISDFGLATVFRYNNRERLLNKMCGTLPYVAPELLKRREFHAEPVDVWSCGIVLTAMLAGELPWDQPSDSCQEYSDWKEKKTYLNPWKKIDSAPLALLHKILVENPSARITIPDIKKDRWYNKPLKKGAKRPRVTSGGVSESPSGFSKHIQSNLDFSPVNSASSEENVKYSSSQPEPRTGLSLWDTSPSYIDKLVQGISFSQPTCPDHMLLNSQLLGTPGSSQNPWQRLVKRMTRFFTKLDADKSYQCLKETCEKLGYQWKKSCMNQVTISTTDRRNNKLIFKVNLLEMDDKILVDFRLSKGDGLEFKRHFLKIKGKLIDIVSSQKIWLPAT

[9] = molecular target: Bone morphogenetic protein receptor type-1B (Homo sapiens) (UniProt O00238)

Measured: % residual kinase activity

Chain of Mitogen-activated protein kinase 10 (Homo sapiens) (P53779 whole entry): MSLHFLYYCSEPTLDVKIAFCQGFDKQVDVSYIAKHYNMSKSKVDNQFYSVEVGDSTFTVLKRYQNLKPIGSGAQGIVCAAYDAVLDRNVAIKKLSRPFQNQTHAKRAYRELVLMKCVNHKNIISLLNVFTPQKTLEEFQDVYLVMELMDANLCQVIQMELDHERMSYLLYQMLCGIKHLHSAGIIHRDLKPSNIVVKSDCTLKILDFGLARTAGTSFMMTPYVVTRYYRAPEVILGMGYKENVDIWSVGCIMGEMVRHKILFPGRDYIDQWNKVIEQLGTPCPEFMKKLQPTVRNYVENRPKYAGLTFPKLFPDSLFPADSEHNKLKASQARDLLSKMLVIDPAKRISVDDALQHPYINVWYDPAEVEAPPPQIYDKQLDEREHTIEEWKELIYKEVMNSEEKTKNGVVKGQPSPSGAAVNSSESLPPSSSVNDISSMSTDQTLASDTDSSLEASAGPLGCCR
Chain of Bone morphogenetic protein receptor type-1B (Homo sapiens) (O00238 whole entry): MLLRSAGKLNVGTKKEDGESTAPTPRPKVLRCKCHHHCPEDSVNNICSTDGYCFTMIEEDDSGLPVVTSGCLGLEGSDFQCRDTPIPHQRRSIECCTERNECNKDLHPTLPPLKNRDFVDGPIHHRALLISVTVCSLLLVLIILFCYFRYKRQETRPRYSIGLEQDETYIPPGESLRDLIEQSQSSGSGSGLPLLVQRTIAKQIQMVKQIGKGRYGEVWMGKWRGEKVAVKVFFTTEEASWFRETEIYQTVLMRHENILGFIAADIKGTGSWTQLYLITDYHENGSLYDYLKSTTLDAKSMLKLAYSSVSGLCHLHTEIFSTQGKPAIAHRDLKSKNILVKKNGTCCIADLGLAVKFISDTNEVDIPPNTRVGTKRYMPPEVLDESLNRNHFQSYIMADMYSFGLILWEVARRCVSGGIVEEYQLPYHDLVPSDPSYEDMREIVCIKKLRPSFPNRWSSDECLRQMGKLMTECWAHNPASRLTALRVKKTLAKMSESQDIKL
Chain of [Pyruvate dehydrogenase (acetyl-transferring)] kinase isozyme 4, mitochondrial (Homo sapiens) (Q16654 whole entry, looked up): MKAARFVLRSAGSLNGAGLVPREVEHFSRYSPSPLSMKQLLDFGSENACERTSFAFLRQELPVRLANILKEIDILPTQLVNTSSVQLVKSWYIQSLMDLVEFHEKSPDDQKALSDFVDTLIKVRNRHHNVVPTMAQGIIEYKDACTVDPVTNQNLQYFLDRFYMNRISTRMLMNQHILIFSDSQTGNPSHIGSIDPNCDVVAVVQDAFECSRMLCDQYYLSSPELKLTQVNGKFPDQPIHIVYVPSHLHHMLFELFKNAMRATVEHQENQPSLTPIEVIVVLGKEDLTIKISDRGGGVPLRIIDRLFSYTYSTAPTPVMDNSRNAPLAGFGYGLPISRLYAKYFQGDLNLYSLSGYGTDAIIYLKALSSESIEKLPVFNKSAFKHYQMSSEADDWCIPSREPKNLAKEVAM
Chain of Calcium/calmodulin-dependent protein kinase type 1 (Homo sapiens) (Q14012 whole entry, looked up): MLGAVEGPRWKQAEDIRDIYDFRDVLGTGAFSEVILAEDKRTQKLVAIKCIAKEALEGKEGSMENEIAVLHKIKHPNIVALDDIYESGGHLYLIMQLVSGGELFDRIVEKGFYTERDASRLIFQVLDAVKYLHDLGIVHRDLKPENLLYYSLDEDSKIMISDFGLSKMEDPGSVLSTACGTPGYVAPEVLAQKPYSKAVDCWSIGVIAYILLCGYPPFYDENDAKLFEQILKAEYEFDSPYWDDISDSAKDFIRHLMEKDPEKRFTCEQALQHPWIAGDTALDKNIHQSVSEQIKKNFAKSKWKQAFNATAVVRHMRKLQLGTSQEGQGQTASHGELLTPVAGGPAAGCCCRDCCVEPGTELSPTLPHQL

CN1CCN(c2cnc3c(C4CCN(C(=O)c5ccc(OC(F)(F)F)cc5N)CC4)ncnc3c2)CC1 [BAY-885]
inactive: [1] 106% | [2] 111% | [3] 109% | [4] 104% | [5] 92% | [6] 105% | [7] 96% | [8] 89% | [9] 102%

— ChEMBL document CHEMBL4507268 (2021)
